According to patent publication US20180344725A1, “QUINOLONE CHALCONE COMPOUNDS AND USES THEREOF” (priority 2015, published 2018):

Experiments:
MCF-10A = assay: SRB-based cytotoxicity assay; type: cell-based; conditions: for IC50: Homo sapiens; for Cell survival rate: MCF10A, 0.39 μM
How it was run: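 Following a 16 h settling period, medium containing compound was added for 72 h. Proliferation was then quantified from absorbance at 540 nm of SRB-stained protein, normalised between TCA-treated and sham DMSO controls, and fitted to obtain IC50.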

RPMI-8226 (myeloma) = assay: SRB-based cytotoxicity assay; type: cell-based; conditions: 72 hours
How it was run: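 4,000-5,000 cells/well, 16 h pre-incubation; compound (DMSO) 72 h; 10% TCA fix 4 °C 1 h; 0.4% SRB 30 min, 1% acetic acid wash; 10 mM Tris pH 10.5; A540. IC50 by sigmoidal fit, n=2 biological × 4.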

KB-C-2 = assay: SRB-based cytotoxicity assay, single and combination with paclitaxel; type: cell-based, human; conditions: for IC50: Homo sapiens, KB-C2, KB-C-2, multidrug-resistant; for Resistance (fold): KB-C-2 versus KB-C-1
Procedure: 1845B5 and MCF-10A non-cancer breast cell lines were cultured in DME/F12 medium supplemented with 10% fetal bovine serum, antibiotics and growth factors. […] The human small cell lung carcinoma H69 cell line and its multidrug-resistant MRP1-overexpressing isogenic H69AR cell line were purchased from ATCC. […] H69 cells grow as large multi-cell aggregates, making it difficult to accurately count cell numbers. […] The IL-6 dependent bortezomib-resistant ANBL6-BR cell line was further supplemented with 1 ng/ml of IL-6. The MCF10AT1 and MCF10CA1a cell lines are isogenic to the MCF10A cell line, and obtained from Dr. Valerie Weaver at the Center for Bioengineering and Tissue Regeneration, UCSF, CA, USA. […] The drug-resistant cells were cultured in the absence of drug for at least one passage before carrying out experiments. All cells were maintained in a humidified incubator at 37° C. […] Cell line authentication was performed using short tandem repeat (STR) profiling. […] Some wells were treated with 100 μl of 10% trichloroacetic acid (TCA) as a negative control and sham (medium with dimethyl sulfoxide; DMSO) treated cells were used as a positive control. […] TCA was removed and cells were washed with cold tap water, and plate was air-dried, followed by addition of 50 μl of 0.4% SRB staining solution to each well. After 30 minutes incubation, SRB staining solution was removed. Cells were washed with 1% acetic acid solution, and then washed with tap water to remove unbound staining solution, followed by air-drying. 200 μl of 10 mM (pH10.5) trizma base buffer was added to each well to solubilise macromolecules. […] Cell growth (inhibition) was calculated by the following formula: % cells proliferation=[(AT-CT)/(ST-CT)]×100 wherein AT=absorbance of treated cells, CT=absorbance of negative control cells, and ST=absorbance of sham treated cells. […] CI values were determined from four independent experiments.

MDA-MB231TaxR = assay: as above; type: cell-based; conditions: for killing of MDA-MB231TaxR compared with parental MDA-MB231: TaxR selected in 100.0 nM paclitaxel
Procedure: All of the cell lines used were purchased from ATCC and cultured in RPMI-1640 supplemented with 10% fetal bovine serum and antibiotics (100 units penicillin/100 μg/ml streptomycin), unless stated otherwise. 1845B5 and MCF-10A non-cancer breast cell lines were cultured in DME/F12 medium supplemented with 10% fetal bovine serum, antibiotics and growth factors. […] The human small cell lung carcinoma H69 cell line and its multidrug-resistant MRP1-overexpressing isogenic H69AR cell line were purchased from ATCC. […] H69 cells grow as large multi-cell aggregates, making it difficult to accurately count cell numbers. […] The IL-6 dependent bortezomib-resistant ANBL6-BR cell line was further supplemented with 1 ng/ml of IL-6. The MCF10AT1 and MCF10CA1a cell lines are isogenic to the MCF10A cell line, and obtained from Dr. Valerie Weaver at the Center for Bioengineering and Tissue Regeneration, UCSF, CA, USA. MCF10AT1 is a premalignant cell line generated by transforming MCF10A with c-Ha-Ras; and MCF10CA1a was isolated by selecting malignant cells after MCF10AT1 cells were engrafted into mice (Liu & Lin 2004; […] et al. 2009). […] The drug-resistant cells were cultured in the absence of drug for at least one passage before carrying out experiments. All cells were maintained in a humidified incubator at 37° C. […] Cell line authentication was performed using short tandem repeat (STR) profiling. For (anti)proliferation assays, 4,000-5,000 cells/well of the 96-well clustered dish were incubated for 16 hours, as described previously (Hu et al., 2008; Skehan et al., 1990). […] Some wells were treated with 100 μl of 10% trichloroacetic acid (TCA) as a negative control and sham (medium with dimethyl sulfoxide; DMSO) treated cells were used as a positive control. […] TCA was removed and cells were washed with cold tap water, and plate was air-dried, followed by addition of 50 μl of 0.4% SRB staining solution to each well. After 30 minutes incubation, SRB staining solution was removed. Cells were washed with 1% acetic acid solution, and then washed with tap water to remove unbound staining solution, followed by air-drying. 200 μl of 10 mM (pH10.5) trizma base buffer was added to each well to solubilise macromolecules. […] Cell growth (inhibition) was calculated by the following formula: % cells proliferation=[(AT-CT)/(ST-CT)]×100 wherein AT=absorbance of treated cells, CT=absorbance of negative control cells, and ST=absorbance of sham treated cells. […] The combinational index (CI) was calculated as described previously (Chou 2006). […] CI values were determined from four independent experiments.

[1] = MCF-10A non-cancer, SRB, Table 2
[2] = single agent at 0.5IC50 (CTR-17 0.325 μM; CTR-20 0.125 μM; paclitaxel 11.5 nM)
[3] = single agent at IC50 (CTR-17 0.65 μM; CTR-20 0.25 μM; paclitaxel 23 nM)
[4] = MCF-10A, MCF10A non-cancer, 72 hours, Table 4

Row | Compound | IC50 (MCF-10A; [1]) | Cell survival rate (MCF-10A; 72 hours) | IC50 (RPMI-8226 (myeloma); Homo sapiens) | IC50 (KB-C-2) | Resistance (fold) (KB-C-2) | Cell survival rates (KB-C-2; [2]) | Cell survival rates (KB-C-2; [3]) | killing of MDA-MB231TaxR compared with parental MDA-MB231 (MDA-MB231TaxR) | Cell survival rate (MDA-MB231TaxR; single agent 0.3 μM) | IC50 (MCF-10A; [4]) | IC50 (RPMI-8226 (myeloma); Table 4) | Cell survival rate (MDA-MB231TaxR; single agent 23.4 nM) | Cell survival rates (KB-C-2; single agent at 0.125IC50 (paclitaxel 2.875 nM)) | Cell survival rates (KB-C-2; single agent at 0.25IC50 (paclitaxel 5.75 nM)) | Cell survival rate (MDA-MB231TaxR; single agent 18.75 nM) | Cell survival rate (MDA-MB231TaxR; single agent 37.5 nM) | Cell survival rate (MDA-MB231TaxR; single agent 75.0 nM) | Cell survival rate (MDA-MB231TaxR; single agent 150 nM) | Cell survival rate (MDA-MB231TaxR; single agent 300 nM)
1 | COc1ccccc1C(=O)/C=C/c1cc2ccccc2[nH]c1=O [CTR-17, (E)-3-(3-(2-Methoxyphenyl)-3-oxoprop-1-enyl)quinolin-2(1H)-one] | 3950 ± 140 nM | 95% | 360 ± 40 nM | 650 ± 160 nM | 1.71 fold | 80.0 ± 11.4 | 53.2 ± 12.6 | to the same degree as the parental MDA-MB231 cells | – | – | – | – | – | – | – | – | – | – | –
2 | COc1ccc2[nH]c(=O)c(/C=C/C(=O)c3ccccc3OC)cc2c1 [CTR-20, (E)-6-Methoxy-3-(3-(2-methoxyphenyl)-3-oxoprop-1-enyl) quinolin-2(1H)-one] | 2370 ± 210 nM | 75% | 230 nM | 250 ± 30 nM | 2.50 fold | 76.0 ± 9.6 | 56.8 ± 8.4 | to the same degree as the parental MDA-MB231 cells | 63.7 ± 2.52 | – | – | – | – | – | – | – | – | – | –
3 | COc1ccccc1C(=O)/C=C/c1cc2cccc(OC)c2[nH]c1=O [CTR-21, (E)-8-methoxy-3-(3-(2-methoxyphenyl)-3-oxoprop-1-enyl) quinolin-2(1H)-one] | – | – | – | – | – | – | – | to the same degree as the parental MDA-MB231 cells | – | 20.3 ± 2.47 nM | 5.34 ± 0.89 nM | 52.10 ± 3.71 | – | – | – | – | – | – | –
4 | CCOc1ccccc1C(=O)/C=C/c1cc2ccccc2[nH]c1=O [CTR-32, (E)-3-(3-(2-ethoxyphenyl)-3-oxoprop-1-enyl)quinolin-2(1H)-one] | – | – | – | – | – | – | – | to the same degree as the parental MDA-MB231 cells | – | 30.1 ± 1.61 nM | 6.29 ± 1.43 nM | 53.07 ± 6.50 | – | – | – | – | – | – | –
5 | CC(=O)O[C@H]1C(=O)[C@@]2(C)[C@H]([C@H](OC(=O)c3ccccc3)[C@]3(O)C[C@H](OC(=O)[C@H](O)[C@@H](NC(=O)c4ccccc4)c4ccccc4)C(C)=C1C3(C)C)[C@]1(OC(C)=O)CO[C@@H]1C[C@@H]2O [Paclitaxel, reference compound] | – | – | – | – | 11.48 fold | 75.9 ± 7.7 | 48.4 ± 5.8 | – | – | – | – | – | 99.6 ± 0.3 | 89.5 ± 6.0 | 95.84 ± 1.86 | 90.28 ± 3.58 | 90.98 ± 4.49 | 82.41 ± 5.00 | 57.75 ± 3.78
